Patent US4500545A, “Hydroxyaminotetralincarboxamides” (Eli Lilly and Company, priority 1984, dated 1985)
Entries after “also recorded” stand apart in the source; their conditions may differ.

Experiments:
prolactin secretion = experiment: Prolactin secretion inhibition in reserpine-treated rats; assay type: in vivo, rat (adult male Sprague-Dawley); conditions: 1 mg./kg. intraperitoneal; reserpine-pretreated male rats; serum 1 hour after treatment
Method: The compounds of this invention are also useful as inhibitors of prolactin secretion. Dopaminergic drugs with such activity can be employed in the treatment of inappropriate lactation, such as postpartum lactation and galactorrhea. […] Each rat received an intraperitoneal injection of 2.0 mg. of reserpine in aqueous suspension 18 hours before administration of the test compound. The purpose of the reserpine was to keep prolactin levels uniformly elevated. The compounds under test were dissolved in water and were injected intraperitoneally at a 1 mg./kg. dose level. Each compound was administered to a group of 10 rats, and a control group of 10 intact males received an equivalent amount of solvent only. One hour after treatment all rats were killed by decapitation, and 150 μl. aliquots of serum were assayed for prolactin.
In the table, column 1 gives the name of the compound and column 2, the percent inhibition of prolactin secretion. The dosage was 1 mg./kg.

[1] = tested on: mean arterial blood pressure, anesthetized spontaneously hypertensive rats; experiment: Blood pressure lowering in anesthetized spontaneously hypertensive rats (SHR); assay type: in vivo, rat (spontaneously hypertensive); conditions: ± standard error
Method: As previously stated, the compounds of this invention are dopamine agonists. As such, one of their properties, shared by many dopamine agonists, is the ability to lower blood pressure in anesthetized spontaneously hypertensive rats (SHR). Table 1 which follows gives the results of testing compounds of this invention which lowered the blood pressure of anesthetized SHR at dose levels of 1 mg./kg. or lower. In the Table, the first 4 columns give the substitution pattern of the hydroxyaminonaphthalene carboxamide and the second 4 columns the percent blood pressure lowering±standard error for the particular compound at 4 different dose levels.

[2] = tested on: 6-hydroxydopamine-lesioned rats (nigro-neostriatal-lesioned), turning behavior; experiment: Turning behavior in 6-hydroxydopamine-lesioned rats; assay type: in vivo, rat; conditions: 1 mg./kg. intraperitoneal; for Number of turns (average): counted over a 15-minute period after latency
Description: Compounds with dopaminergic or dopamine agonist activity also affect turning behavior in a test procedure utilizing 6-hydroxydopamine-lesioned rats. In this test, nigro-neostriatal-lesioned rats, prepared by the procedure of Ungerstedt and Arbuthnott, Brain Res, 24, 485 (1970), are employed. A compound having dopamine agonist activity, upon injection, causes the rats to turn in circles contralateral to the side of the lesion. After a latency period, which varies from compound to compound, the number of turns is counted over a 15-minute period. The drugs to be administered are dissolved in water and the resulting aqueous solution injected into the rat by the intraperitoneal route at a 1 mg./kg. dose level.

dopamine receptor = conditions: literature; cited from earlier work
[3] = literature; cited from earlier work

Row | SMILES | Percent Inhibition of Prolactin Secretion (prolactin secretion) | Percent lowering of mean arterial blood pressure ([1]; 1 mg./kg.) | Percent lowering of mean arterial blood pressure ([1]; 7 mcg./kg.) | Percent lowering of mean arterial blood pressure ([1]; 10 mcg./kg.) | Percent lowering of mean arterial blood pressure ([1]; 100 mcg./kg.) | dopamine-like activity (in words) (dopamine receptor) | other results
1 | NC(=O)c1c(O)ccc2c1CCC(N)C2 (racemic) [dl-2-Hydroxy-6-amino-5,6,7,8-tetrahydronaphthalene-1-carboxamide] | 13% | – | – | – | – | – | –
2 | NC(=O)c1cc2c(cc1O)CCC(N)C2 (racemic) [dl-3-Hydroxy-7-amino-5,6,7,8-tetrahydro-2-naphthlenecarboxamide] | 18% | -18.3 ± 4.3% | -3.6 ± 0.4% | -5.2 ± 0.8% | -10.2 ± 1.2% | – | –
3 | CN(C)C1CCc2cc(O)c(C(N)=O)cc2C1 (racemic) [dl-3-hydroxy-7-dimethylamino-5,6,7,8-tetrahydro-2-naphthalenecarboxamide] | 36% | -32.5 ± 2.2% | -6.2 ± 0.7% | -14.0 ± 0.5% | -25.1 ± 3.0% | – | Percentage of rats exhibiting turning behavior [2]: 50%; Number of turns (average) [2]: 20
4 | CCCN(CCC)C1CCc2c(ccc(O)c2C(N)=O)C1 (racemic) [dl-2-Hydroxy-6-di-n-propylamino-5,6,7,8-tetrahydro-1-naphthalenecarboxamide] | 12% | – | – | – | – | – | –
5 | CN(C)C1CCc2cc(O)c(O)cc2C1 (stereo not drawn) [6,7-dihydroxy isomer] | – | – | – | – | – | presynaptic dopamine receptor agonist | –
6 | CN(C)C1CCc2c(ccc(O)c2O)C1 (centres unmarked) [Example M7, 2-dimethylamino-5,6-dihydroxy-1,2,3,4-tetralin] | – | – | – | – | – | dopamine-like activity; also recorded: Its action parallels that of apomorphine | –
7 | CCCN(CCC)C1CCc2cc(O)c(C(N)=O)cc2C1 (racemic) [dl-3-Hydroxy-7-di-n-propylamino-5,6,7,8-tetrahydro-2-naphthalenecarboxamide] | 88% | -41.9 ± 1.6% | -6.8 ± 0.5% | -19.6 ± 0.8% | -35.9 ± 2.3% | – | Percentage of rats exhibiting turning behavior [2]: 75%; Number of turns (average) [2]: 71
8 | NC1CCc2cc(O)c(O)cc2C1 (centres unmarked) [ADTN, 2-amino-6,7-dihydroxy-1,2,3,4-tetralin] | – | – | – | – | – | dopamine-like action | –
9 | CC(C)NC1CCc2c(ccc(O)c2CO)C1O (centres unmarked) [1-hydroxymethyl-2,5-dihydroxy-6-isopropylamino-5,6,7,8-tetrahydronaphthalene] | – | – | – | – | – | – | bronchodilator activity (in words) [3]: bronchodilator
10 | CN(C)C1CCc2c(ccc(O)c2C(N)=O)C1 (racemic) [R=CONH2, R^1=H, R^2=Me, R^3=Me, dl-2-hydroxy-6-dimethylamino-5,6,7,8-tetrahydro-1-naphthalenecarboxamide] | – | -6.0 ± 0.5% | -6.8 ± 0.3% | -5.7 ± 0.3% | -6.7 ± 0.8% | – | –
